Assay results as given in PubChem BioAssay AID256 (DTP/NCI, 2004).
Several values for one entry are separate records, joined by “and”; a condition that tells them apart may be missing. Equal values may be shown once. Toxic doses and inconclusive results are not listed. Rule for the calls: active = survival T/C of 150% or more; inactive = T/C below 125% in these data.

Tested on: CD2F1 mice, L1210 leukemia ip, survival T/C
Test: NCI In Vivo Anticancer Drug Screen. Data for tumor model L1210 Leukemia (intraperitoneal) in CD2F1 (CDF1) mice
Conditions: endpoint: mean survival time, higher = longer survival
Summary of the method: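 Compound-dosed mice with transplantable tumor versus matched vehicle controls; endpoint ratio T/C reported.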

[1] = dose: 100.0 mg/kg/injection, schedule: Q01DX009 (ip), vehicle: saline with Tween-80
[2] = dose: 200.0 mg/kg/injection, schedule: Q01DX009 (ip), vehicle: saline with Tween-80
[3] = dose: 400.0 mg/kg/injection, schedule: Q01DX009 (ip), vehicle: saline with Tween-80
[4] = dose: 100.0 mg/kg/injection, schedule: Q04DX002 (ip), vehicle: saline with Tween-80
[5] = dose: 100.0 mg/kg/injection, schedule: Q01DX001 (ip), vehicle: saline
[6] = dose: 200.0 mg/kg/injection, schedule: Q01DX001 (ip), vehicle: saline
[7] = dose: 400.0 mg/kg/injection, schedule: Q01DX001 (ip), vehicle: saline
[8] = dose: 50.0 mg/kg/injection, schedule: Q01DX009 (ip), vehicle: saline with Tween-80
[9] = dose: 100.0 mg/kg/injection, schedule: Q04DX003 (ip), vehicle: saline with Tween-80
[10] = dose: 200.0 mg/kg/injection, schedule: Q04DX003 (ip), vehicle: saline with Tween-80
[11] = dose: 400.0 mg/kg/injection, schedule: Q04DX003 (ip), vehicle: saline with Tween-80
[12] = dose: 12.5 mg/kg/injection, schedule: Q01DX005 (ip), vehicle: water
[13] = dose: 25.0 mg/kg/injection, schedule: Q01DX005 (ip), vehicle: water
[14] = dose: 50.0 mg/kg/injection, schedule: Q01DX005 (ip), vehicle: water
[15] = dose: 100.0 mg/kg/injection, schedule: Q01DX005 (ip), vehicle: water
[16] = dose: 200.0 mg/kg/injection, schedule: Q01DX005 (ip), vehicle: water
[17] = dose: 75.0 mg/kg/injection, schedule: Q01DX001 (ip), vehicle: saline
[18] = dose: 150.0 mg/kg/injection, schedule: Q01DX001 (ip), vehicle: saline
[19] = dose: 300.0 mg/kg/injection, schedule: Q01DX001 (ip), vehicle: saline
[20] = dose: 25.0 mg/kg/injection, schedule: Q04DX002 (ip), vehicle: saline with Tween-80
[21] = dose: 50.0 mg/kg/injection, schedule: Q04DX002 (ip), vehicle: saline with Tween-80

Measured: T/C

CCCCCCCCCCNC(C1=C(O)c2ccccc2C(=O)C1=O)c1ccccc1 (stereo not drawn)
inactive: dose: 6.25 mg/kg/injection, schedule: Q01DX001 (ip), vehicle: saline with Tween-80 107 % of control | dose: 12.5 mg/kg/injection, schedule: Q01DX001 (ip), vehicle: saline with Tween-80 100 % of control | dose: 25.0 mg/kg/injection, schedule: Q01DX001 (ip), vehicle: saline with Tween-80 92 % of control

O=C(NC(=O)c1ccccc1)NS(=O)(=O)c1ccccc1
inactive: [1] 113 % of control | [2] 109 % of control | [3] 98 % of control

C=CCOC(=O)CCN1CC1
inactive: dose: 0.5 mg/kg/injection, schedule: Q01DX009 (ip), vehicle: saline with Tween-80 106 % of control | dose: 1.0 mg/kg/injection, schedule: Q01DX009 (ip), vehicle: saline with Tween-80 103 % of control | dose: 2.0 mg/kg/injection, schedule: Q01DX009 (ip), vehicle: saline with Tween-80 103 % of control

COc1ccc(NC(=O)Nc2cccc(Cl)c2)c(OC)c1
inactive: [4] 88 % of control | dose: 200.0 mg/kg/injection, schedule: Q04DX002 (ip), vehicle: saline with Tween-80 98 % of control

CN(C)CCOC(=O)COc1ccc(Cl)cc1
inactive: [5] 97 % of control | [6] 100 % of control | [7] 94 % of control

C=C[Si]1(C)O[Si](C)(C=C)O[Si](C)(C=C)O1 (stereo not drawn)
inactive: [8] 93 % of control | [1] 104 % of control | [2] 93 % of control

C=C(C)CNCC(=C)C
inactive: dose: 25.0 mg/kg/injection, schedule: Q04DX003 (ip), vehicle: saline 102 % of control | dose: 50.0 mg/kg/injection, schedule: Q04DX003 (ip), vehicle: saline 98 % of control | dose: 100.0 mg/kg/injection, schedule: Q04DX003 (ip), vehicle: saline 102 % of control and 106 % of control

O=CNCCN(C=O)CCO
inactive: dose: 100.0 mg/kg/injection, schedule: Q01DX009 (ip), vehicle: saline 97 % of control | dose: 200.0 mg/kg/injection, schedule: Q01DX009 (ip), vehicle: saline 104 % of control | dose: 400.0 mg/kg/injection, schedule: Q01DX009 (ip), vehicle: saline 98 % of control

COC(=O)N(C)c1cccc(OC(=O)N(C)C)c1
inactive: [9] 92 % of control | [10] 99 % of control | [11] 99 % of control

C/C=C\c1ccc(OCCOC(=O)Nc2ccc(C)c([N+](=O)[O-])c2)c(OC)c1
inactive: dose: 12.5 mg/kg/injection, schedule: Q01DX009 (ip), vehicle: saline with Tween-80 98 % of control | dose: 25.0 mg/kg/injection, schedule: Q01DX009 (ip), vehicle: saline with Tween-80 92 % of control | [8] 88 % of control and 92 % of control | [2] 88 % of control

NP(=O)(Oc1ccc([N+](=O)[O-])cc1)Oc1ccc([N+](=O)[O-])cc1
inactive: dose: 62.5 mg/kg/injection, schedule: Q01DX001 (ip), vehicle: other 97 % of control | dose: 125.0 mg/kg/injection, schedule: Q01DX001 (ip), vehicle: other 93 % of control | dose: 250.0 mg/kg/injection, schedule: Q01DX001 (ip), vehicle: other 97 % of control | dose: 500.0 mg/kg/injection, schedule: Q01DX001 (ip), vehicle: other 86 % of control

Cn1c(=O)c2c(nc(-[n+]3ccccc3)n2C)n(C)c1=O
inactive: [12] 94 % of control | [13] 100 % of control | [14] 103 % of control | [15] 103 % of control | [16] 120 % of control

CC(=O)ON=C1C=CC(=C(C#N)c2ccccc2)C=C1
inactive: dose: 50.0 mg/kg/injection, schedule: Q01DX001 (ip), vehicle: saline 96 % of control | [8] 97 % of control and 101 % of control | [5] 98 % of control | [1] 98 % of control and 100 % of control | [9] 91 % of control | [6] 95 % of control | [2] 93 % of control and 101 % of control | [10] 95 % of control | [7] 90 % of control | [11] 105 % of control

CCCCCCCCCCCCCCNCCC(=O)O
inactive: [17] 98 % of control | [18] 106 % of control

Cc1cn(C2CC3OP(=O)(N(C)C)OCC3O2)c(=O)[nH]c1=O (stereo not drawn)
inactive: [12] 105 % of control | [13] 100 % of control | [14] 109 % of control | [15] 97 % of control | [16] 103 % of control

C=C[C](=C)[Pb]([CH2]C)([CH2]C)[CH2]C
inactive: [17] 100 % of control | [18] 97 % of control | [19] 107 % of control

CCCCCCCCCCCCCCCCCC(=O)CC
inactive: dose: 100.0 mg/kg/injection, schedule: Q04DX002 (ip), vehicle: saline + alcohol 93 % of control | dose: 200.0 mg/kg/injection, schedule: Q04DX002 (ip), vehicle: saline + alcohol 93 % of control | dose: 400.0 mg/kg/injection, schedule: Q04DX002 (ip), vehicle: saline + alcohol 93 % of control

c1ccc2c(c1)C1c3cccc[n+]3C2C2C1CC1C3c4ccccc4C(C12)[n+]1ccccc13 (stereo not drawn)
inactive: dose: 12.5 mg/kg/injection, schedule: Q04DX003 (ip), vehicle: saline 98 % of control

CC[C@H](C)c1occ2c(O)c(C(=O)O)c(=O)cc-2c1C
inactive: [5] 98 % of control | [6] 101 % of control

CC(=O)Nc1c[n+]([O-])cc2ccccc12
inactive: [1] 105 % of control | [9] 94 % of control | [2] 98 % of control | [10] 96 % of control | [3] 100 % of control | [11] 94 % of control

Nc1ccc2c(c1)-c1ccccc1C2O (stereo not drawn)
inactive: [9] 92 % of control | [10] 101 % of control | [11] 99 % of control

CC(C)[S][Pb]([c]1ccccc1)([c]1ccccc1)[c]1ccccc1
inactive: dose: 1.25 mg/kg/injection, schedule: Q01DX009 (ip), vehicle: gum acacia 93 % of control | dose: 2.5 mg/kg/injection, schedule: Q01DX009 (ip), vehicle: gum acacia 98 % of control | dose: 5.0 mg/kg/injection, schedule: Q01DX009 (ip), vehicle: gum acacia 96 % of control

COc1c(O)ccc2c1CCCCC2=O
inactive: [8] 100 % of control | [1] 100 % of control | [2] 100 % of control

N#CC(C#N)=C1CCN2CCCc3cccc1c32
inactive: dose: 100.0 mg/kg/injection, schedule: Q01DX001 (ip), vehicle: saline with Tween-80 100 % of control | dose: 200.0 mg/kg/injection, schedule: Q01DX001 (ip), vehicle: saline with Tween-80 95 % of control | dose: 400.0 mg/kg/injection, schedule: Q01DX001 (ip), vehicle: saline with Tween-80 111 % of control

O=Cc1nccc2c1[nH]c1ccccc12
inactive: [9] 95 % of control | [10] 104 % of control | [11] 100 % of control

c1ccc2c(c1)Cc1cc3ccccc3nc1-2
inactive: [17] 102 % of control | [18] 97 % of control | [19] 101 % of control

C[Si](OP(=O)(O[Si](C)(c1ccccc1)c1ccccc1)N(CCCl)CCCl)(c1ccccc1)c1ccccc1
inactive: dose: 15.63 mg/kg/injection, schedule: Q01DX001 (ip), vehicle: distilled water + Tween-80 104 % of control | dose: 31.25 mg/kg/injection, schedule: Q01DX001 (ip), vehicle: distilled water + Tween-80 97 % of control | dose: 62.5 mg/kg/injection, schedule: Q01DX001 (ip), vehicle: distilled water + Tween-80 101 % of control | dose: 125.0 mg/kg/injection, schedule: Q01DX001 (ip), vehicle: distilled water + Tween-80 95 % of control | dose: 250.0 mg/kg/injection, schedule: Q01DX001 (ip), vehicle: distilled water + Tween-80 97 % of control | dose: 500.0 mg/kg/injection, schedule: Q01DX001 (ip), vehicle: distilled water + Tween-80 115 % of control

C[P+](c1ccc(F)cc1)(c1ccc(F)cc1)c1ccc(F)cc1
inactive: [20] 100 % of control | [21] 92 % of control

CCCCc1ccc(N=C(N)N=C(N)N)cc1
inactive: dose: 9.5 mg/kg/injection, schedule: Q01DX001 (ip), vehicle: other 103 % of control | dose: 19.0 mg/kg/injection, schedule: Q01DX001 (ip), vehicle: other 94 % of control | dose: 38.0 mg/kg/injection, schedule: Q01DX001 (ip), vehicle: other 91 % of control

N#CCCN(CCCN1CCOCC1)C(=S)Nc1cccc(C(F)(F)F)c1
inactive: [20] 104 % of control | [21] 98 % of control | [4] 106 % of control
